Measurements: ChEMBL document CHEMBL1155679, “New xenicane diterpenoids from the gorgonian Acalycigorgia inermis” (2000)
Converted amounts (≈) assume the structure as drawn.

system: K562; test: Cytotoxicity against human K562 cells; type: functional; settings: read-out: LC50 (the source's name)

Structure (SMILES)	CC50 [µg/mL]
C=C1CC[C@@H]2O[C@@]2(C)CC[C@@H]2[C@H](CCC=C(C)C)C(=O)OC[C@@H]12 [ACALYCIXENIOLIDE F]	0.2 (≈ 0.628 µM)
C=C=CCC(OC(C)=O)C1=CO[C@H](OC(C)=O)[C@H]2C(=C)CC[C@@H]3O[C@@]3(C)CC[C@H]12 (some centres undefined) [ACALYCIXENIOLIDE E]	4.7 (≈ 11.7 µM)
C=C=CC/C=C1/C(=O)OC[C@H]2C(=C)CC[C@@H]3O[C@@]3(C)CC[C@H]12 [ACALYCIXENIOLIDE D]	52 (≈ 173 µM)
C=C=CCC[C@@H]1C(=O)OC[C@H]2C(=C)CC[C@@H]3O[C@@]3(C)CC[C@H]12 [ACALYCIXENIOLIDE C]	1.6 (≈ 5.29 µM)
